Source: BindingDB's records for doi:10.1016/s0960-894x(00)00142-6 (University of Wales, 2000)
pIC50: −log10 of the molar value.

Molecular target: Glutathione S-transferase 2 (Onchocerca volvulus)
Test: The compound was tested for it's inhibitory activity against Onchocerca volvulus Glutathione S-transferase 2

SMILES	pIC50
CCCCOC(=O)CC(SCC(NC(=O)CCC(N)C(=O)O)C(=O)NCC(=O)O)C(=O)O (centres undefined) [2-[2-(4-Amino-4-carboxy-butyrylamino)-2-(carboxymethyl-carbamoyl)-ethylsulfanyl]-succinic acid 4-butyl ester]	4.32
N[C@@H](CCC(=O)N[C@@H](CS[C@H](CC(=O)O)C(=O)O)C(=O)NCC(=O)O)C(=O)O [2-[2-(4-Amino-4-carboxy-butyrylamino)-2-(carboxymethyl-carbamoyl)-ethylsulfanyl]-succinic acid]	4.72
CC(C)C(=O)CC(SCC(NC(=O)CCC(N)C(=O)O)C(=O)NCC(=O)O)c1ccccc1 (centres undefined) [2-Amino-4-[1-(carboxymethyl-carbamoyl)-2-(4-methyl-3-oxo-1-phenyl-pentylsulfanyl)-ethylcarbamoyl]-butyric acid]	4.50
NC(CCC(=O)NC(CSC1CCCC(=O)C1)C(=O)NCC(=O)O)C(=O)O (centres undefined) [2-Amino-4-[1-(carboxymethyl-carbamoyl)-2-(3-oxo-cyclohexylsulfanyl)-ethylcarbamoyl]-butyric acid]	3.66
